This note sets out measurements from patent US12319695B2, “Sulfonamide derivative with fused pyrimidine skeleton, having epidermal growth factor receptor mutation inhibitory effect” (HANMI PHARM. CO., LTD., priority 2018, dated 2025).

The assay has as its system Ba/F3 EGFR del19/T790M/C797S cells. Nature of the assay: Ba/F3 EGFR del19/T790M/C797S cell growth inhibition test (CellTiter-Glo, 72 hours).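 Note: compounds tested in tenfold steps from 10 µM down to 0.1 nM, with luminescence read on a microplate reader.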 It is filed as cell-based. The settings on record: Ba/F3 cell line overexpressing EGFR del19/T790M/C797S, 72 hours, CellTiter-Glo; read-out: Ba/F3 EGFR del19/T790M/C797S cells, GI50.
In the case of `CN(c1ccccc1Nc1nc(Nc2ccc(N3CCCCC3)c(F)c2)nc2[nH]ccc12)S(C)(=O)=O` [Example 22, N-(2-((2-((4-(piperidin-1-yl)-3-fluorophenyl)amino)-7H-pyrrolo[2,3-d]pyrimidine-4-yl)amino)phenyl)-N-methylmethanesulfonamide], the GI50 amounted to 371 nM.

In the case of `CN(c1ccccc1Nc1nc(Nc2ccc(N3CCNCC3)c(F)c2)nc2[nH]ccc12)S(C)(=O)=O` [Example 23, N-(2-((2-((3-fluoro-4-(piperazin-1-yl)phenyl)amino)-7H-pyrrolo[2,3-d]pyrimidine-4-yl)amino)phenyl)-N-methylmethanesulfonamide], the GI50 amounted to 76 nM. For `CN1CCC(Nc2ccc(Nc3nc(Nc4ccccc4N(C)S(C)(=O)=O)c4cc[nH]c4n3)cc2F)CC1` [Example 24, N-(2-((2-((3-fluoro-4-((1-methylpiperidin-4-yl)amino)phenyl)amino)-7H-pyrrolo[2,3-d]pyrimidine-4-yl)amino)phenyl)-N-methylmethanesulfonamide], the GI50 was found to be 47 nM. The value for `CN1CCN(c2c(F)cc(Nc3nc(Nc4ccccc4N(C)S(C)(=O)=O)c4cc[nH]c4n3)cc2F)CC1` [Example 25, N-(2-((2-((3,5-difluoro-4-(4-methylpiperazin-1-yl)phenyl)amino)-7H-pyrrolo[2,3-d]pyrimidine-4-yl)amino)phenyl)-N-methylmethanesulfonamide] was 22 nM. The value for `CN1CCN(c2ccc(Nc3nc(Nc4ccccc4N(C)S(C)(=O)=O)c4cc[nH]c4n3)c(F)c2F)CC1` [Example 27, N-(2-((2-((2,3-difluoro-4-(4-methylpiperazin-1-yl)phenyl)amino)-7H-pyrrolo[2,3-d]pyrimidine-4-yl)amino)phenyl)-N-methylmethanesulfonamide] was 6 nM; that for `CN(c1ccccc1Nc1nc(Nc2ccc(N3CCN(CCO)CC3)c(F)c2F)nc2[nH]ccc12)S(C)(=O)=O` [Example 28, N-(2-((2-((2,3-difluoro-4-(4-(2-hydroxyethyl)piperazin-1-yl)phenyl)amino)-7H-pyrrolo[2,3-d]pyrimidine-4-yl)amino)phenyl)-N-methylmethanesulfonamide] was 7 nM. In the case of `CN1CCN(c2ccc(Nc3nc(Nc4ccccc4N(C)S(C)(=O)=O)c4cc[nH]c4n3)nc2)CC1` [Example 29, N-methyl-N-(2-((2-((5-(4-methylpiperazin-1-yl)pyridin-2-yl)amino)-7H-pyrrolo[2,3-d]pyrimidine-4-yl)amino)phenyl)methanesulfonamide] it was 626 nM; in that of `CN1CCN(c2ccc(Nc3nc(Nc4ccccc4N(C)S(C)(=O)=O)c4cc[nH]c4n3)cn2)CC1` [Example 30, N-methyl-N-(2-((2-((6-(4-methylpiperazin-1-yl)pyridin-3-yl)amino)-7H-pyrrolo[2,3-d]pyrimidine-4-yl)amino)phenyl)methanesulfonamide], 9.4 nM; in that of `CN1CCC2(CC1)CCN(c1ccc(Nc3nc(Nc4ccccc4N(C)S(C)(=O)=O)c4cc[nH]c4n3)cc1F)CC2` [Example 31, N-(2-((2-((3-fluoro-4-(9-methyl-3,9-diazaspiro[5.5]undecan-3-yl)phenyl)amino)-7H-pyrrolo[2,3-d]pyrimidine-4-yl)amino)phenyl)-N-methylmethanesulfonamide], 10 nM.

For the molecule `CCN1CCC2(CC1)CCN(c1ccc(Nc3nc(Nc4ccccc4N(C)S(C)(=O)=O)c4cc[nH]c4n3)cc1F)CC2` [Example 32, N-(2-((2-((4-(9-ethyl-3,9-diazaspiro[5.5]undecan-3-yl)-3-fluorophenyl)amino)-7H-pyrrolo[2,3-d]pyrimidine-4-yl)amino)phenyl)-N-methanesulfonamide], the GI50 turned out to be 11 nM. The value for `CN1CCC2(CCN(c3ccc(Nc4nc(Nc5ccccc5N(C)S(C)(=O)=O)c5cc[nH]c5n4)cc3F)CC2)C1` [Example 33, N-(2-((2-((3-fluoro-4-(2-methyl-2,8-diazaspiro[4.5]decan-8-yl)phenyl)amino)-7H-pyrrolo[2,3-d]pyrimidine-4-yl)amino)phenyl)-N-methylmethanesulfonamide] was 31 nM. In the case of `CN1CC2(CCN(c3ccc(Nc4nc(Nc5ccccc5N(C)S(C)(=O)=O)c5cc[nH]c5n4)cc3F)CC2)C1` [Example 34, N-(2-((2-((3-fluoro-4-(2-methyl-2,7-diazaspiro[3.5]nonan-7-yl)phenyl)amino)-7H-pyrrolo[2,3-d]pyrimidine-4-yl)amino)phenyl)-N-methylmethanesulfonamide] it was 6 nM; in that of `CN1CCC2(CC1)CCN(c1ccc(Nc3nc(Nc4ccccc4N(C)S(C)(=O)=O)c4cc[nH]c4n3)cc1F)C2` [Example 35, N-(2-((2-((3-fluoro-4-(8-methyl-2,8-diazaspiro[4.5]decan-2-yl)phenyl)amino)-7H-pyrrolo[2,3-d]pyrimidine-4-yl)amino)phenyl)-N-methylmethanesulfonamide], 185 nM. With `CN1CCC2(CC1)CN(c1ccc(Nc3nc(Nc4ccccc4N(C)S(C)(=O)=O)c4cc[nH]c4n3)cc1F)C2` [Example 37, N-(2-((2-((3-fluoro-4-(7-methyl-2,7-diazaspiro[3.5]nonan-2-yl)phenyl)amino)-7H-pyrrolo[2,3-d]pyrimidine-4-yl)amino)phenyl)-N-methylmethanesulfonamide], the GI50 amounted to 95 nM. The value for `CN1CCC2(C1)CN(c1ccc(Nc3nc(Nc4ccccc4N(C)S(C)(=O)=O)c4cc[nH]c4n3)cc1F)C2` [Example 38, N-(2-((2-((3-fluoro-4-(6-methyl-2,6-diazaspiro[3.4]octan-2-yl)phenyl)amino)-7H-pyrrolo[2,3-d]pyrimidine-4-yl)amino)phenyl)-N-methylmethanesulfonamide] was 25 nM; that for `CN(c1ccccc1Nc1nc(Nc2ccc(N3CCC4(CCOCC4)CC3)c(F)c2)nc2[nH]ccc12)S(C)(=O)=O` [Example 39, N-(2-((2-((3-fluoro-4-(3-oxa-9-diazaspiro[5.5]undecan-9-yl)phenyl)amino)-7H-pyrrolo[2,3-d]pyrimidine-4-yl)amino)phenyl)-N-methylmethanesulfonamide] was 67 nM; that for `CN(c1ccccc1Nc1nc(Nc2ccc(N3CCC4(CC3)COC4)c(F)c2)nc2[nH]ccc12)S(C)(=O)=O` [Example 40, N-(2-((2-((3-fluoro-4-(2-oxa-7-azaspiro[3.5]nonan-7-yl)phenyl)amino)-7H-pyrrolo[2,3-d]pyrimidine-4-yl)amino)phenyl)-N-methylmethanesulfonamide] was 65 nM. In the case of `CN1C[C@@H]2CN(c3ccc(Nc4nc(Nc5ccccc5N(C)S(C)(=O)=O)c5cc[nH]c5n4)cc3F)C[C@@H]2C1` [Example 41, N-(2-((2-((3-fluoro-4-((3aR,6aS)-5-methylhexahydropyrrolo[3,4-c]pyrrole-2(1H)-yl)phenyl)amino)-7H-pyrrolo[2,3-d]pyrimidine-4-yl)amino)phenyl)-N-methylmethanesulfonamide] it was 141 nM. Take `CCN(c1ccccc1Nc1nc(Nc2ccc(N3CCN(C)CC3)c(F)c2)nc2[nH]ccc12)S(C)(=O)=O` [Example 43, N-ethyl-N-(2-((2-((3-fluoro-4-(4-methylpiperazin-1-yl)phenyl)amino)-7H-pyrrolo[2,3-d]pyrimidine-4-yl)amino)phenyl)methanesulfonamide]: the GI50 was determined as 37 nM. In the case of `CC(C)N(c1ccccc1Nc1nc(Nc2ccc(N3CCN(C)CC3)c(F)c2)nc2[nH]ccc12)S(C)(=O)=O` [Example 44, N-(2-((2-((3-fluoro-4-(4-methylpiperazin-1-yl)phenyl)amino)-7H-pyrrolo[2,3-d]pyrimidine-4-yl)amino)phenyl)-N-isopropylmethanesulfonamide] it was 72 nM. The value for `CN1CCN(c2ccc(Nc3nc(Nc4ccccc4N(C4CC4)S(C)(=O)=O)c4cc[nH]c4n3)cc2F)CC1` [Example 45, N-cyclopropyl-N-(2-((2-((3-fluoro-4-(4-methylpiperazin-1-yl)phenyl)amino)-7H-pyrrolo[2,3-d]pyrimidine-4-yl)amino)phenyl)methanesulfonamide] was 64 nM. In the case of `CCS(=O)(=O)N(C)c1ccccc1Nc1nc(Nc2ccc(N3CCN(C)CC3)c(F)c2)nc2[nH]ccc12` [Example 46, N-(2-((2-((3-fluoro-4-(4-methylpiperazin-1-yl)phenyl)amino)-7H-pyrrolo[2,3-d]pyrimidine-4-yl)amino)phenyl)-N-methylethanesulfonamide] it was 16 nM; in that of `CC(C)S(=O)(=O)N(C)c1ccccc1Nc1nc(Nc2ccc(N3CCN(C)CC3)c(F)c2)nc2[nH]ccc12` [Example 47, N-(2-((2-((3-fluoro-4-(4-methylpiperazin-1-yl)phenyl)amino)-7H-pyrrolo[2,3-d]pyrimidine-4-yl)amino)phenyl)-N-methylpropan-2-sulfonamide], 49 nM. Consider `CN1CCN(c2ccc(Nc3nc(Nc4ccccc4N(C)S(=O)(=O)C4CC4)c4cc[nH]c4n3)cc2F)CC1` [Example 48, N-(2-((2-((3-fluoro-4-(4-methylpiperazin-1-yl)phenyl)amino)-7H-pyrrolo[2,3-d]pyrimidine-4-yl)amino)phenyl)-N-methylcyclopropanesulfonamide], for which the GI50 is 30 nM. For the molecule `CCN1CCN(c2ccc(Nc3nc(Nc4ccccc4N(CC)S(C)(=O)=O)c4cc[nH]c4n3)cc2F)CC1` [Example 50, N-ethyl-N-(2-((2-((4-(4-ethylpiperazin-1-yl)-3-fluorophenyl)amino)-7H-pyrrolo[2,3-d]pyrimidine-4-yl)amino)phenyl)methanesulfonamide], the GI50 turned out to be 26 nM. Consider `CCN1CCN(c2ccc(Nc3nc(Nc4ccccc4N(C)S(=O)(=O)CC)c4cc[nH]c4n3)cc2F)CC1` [Example 51, N-(2-((2-((4-(4-ethylpiperazin-1-yl)-3-fluorophenyl)amino)-7H-pyrrolo[2,3-d]pyrimidine-4-yl)amino)phenyl)-N-methylethanesulfonamide], for which the GI50 was 25 nM. The value for `CCN1CCN(c2ccc(Nc3nc(Nc4ccccc4N(CC)S(=O)(=O)CC)c4cc[nH]c4n3)cc2F)CC1` [Example 52] was 119 nM.
